{
  "source": "patent US11866443B2",
  "about": "“Method for separating optically active hydroxy cineole derivatives” (BASF Agro B.V., priority 2017, dated 2024)",
  "assay": "Solubility of racemic and enantiopure hydroxy cineol in different solvents at room temperature",
  "settings": "for Solubility: room temperature",
  "experimental": "The solubility of racemic hydroxy cineol and enantiopure hydroxy cineol was checked at room temperature in solvents namely, petroleum ether, n-pentane, n-hexane, n-heptane, iso-octane, cyclohexane and toluene.\nThe solubility at room temperature was determined by adding under stirring small portions of the substance to 5 mL of solvent until it reached saturation and formation of a no more soluble sediment was observed.",
  "data": [
    {"smiles": "CC(C)C12CCC(C)(O1)C(O)C2", "note": "(racemic) [Racemate, hydroxy cineol]", "values": [
      {"measurement": "Solubility", "setting": "cyclohexane", "value": 380, "unit": "mg/mL"},
      {"measurement": "Solubility", "setting": "iso-octane", "value": 75, "unit": "mg/mL"},
      {"measurement": "solubility of racemate relative to the optical pure hydroxy-cineol", "setting": "n-heptane", "value": 8, "unit": "fold"},
      {"measurement": "Solubility", "setting": "n-heptane", "value": 80, "unit": "mg/mL"},
      {"measurement": "Solubility", "setting": "n-hexane", "value": 100, "unit": "mg/mL"},
      {"measurement": "Solubility", "setting": "n-pentane", "value": 150, "unit": "mg/mL"},
      {"measurement": "solubility of racemic compound compared with optical pure material", "setting": "non-polar solvents", "value": "much better soluble"},
      {"measurement": "Solubility", "setting": "petroleum ether", "value": 120, "unit": "mg/mL"},
      {"measurement": "Solubility", "setting": "toluene", "value": 800, "unit": "mg/mL"}
    ]}
  ]
}
